# ± gives the expanded uncertainty stated by the source.
# Assays:
# [1] = DTA
# [2] = Molar enthalpy of transition or fusion; settings: DSC
SMILES,Triple point temperature ([1]; Crystal),Molar enthalpy of transition or fusion ([2]; Crystal),Triple point temperature ([1]; Crystal 1),Triple point temperature ([1]; Crystal 2),Molar enthalpy of transition or fusion ([2]; Crystal 1),Molar enthalpy of transition or fusion ([2]; Crystal 2)
"CNC(=O)[C@H](CC(C)C)NC(C)=O [(S)-2-acetamido-N,4-dimethylpentanamide]",438.2 ± 0.39 K,5.54 ± 0.127 kcal/mol,–,–,–,–
CCCC(NC(C)=O)C(=O)NC (racemic) [N-acetyl-N'-methyl-DL-norvalinamide],432.29 ± 0.39 K,6.27 ± 0.143 kcal/mol,–,–,–,–
CNC(=O)CNC(C)=O [2-acetamido-N-methylacetamide],430.73 ± 0.39 K,5.65 ± 0.129 kcal/mol,–,–,–,–
CNC(=O)C1CCCN1C(C)=O (stereo unspecified) [1-acetyl-N-methylprolinamide],378.12 ± 0.39 K,6.23 ± 0.139 kcal/mol,–,–,–,–
CNC(=O)[C@@H]1CCCN1C(C)=O [(2S)-1-acetyl-N-methyl-2-pyrrolidinecarboxamide],375.85 ± 0.39 K,5.96 ± 0.134 kcal/mol,–,–,–,–
"CC[C@H](C)[C@H](NC(C)=O)C(=O)NC [(2S,3S)-2-acetamido-N,3-dimethylpentanamide]",525.72 ± 0.39 K,9.11 ± 0.21 kcal/mol,–,–,–,–
CCCCC(NC(C)=O)C(=O)NC (stereo unspecified) [2-acetamido-N-methylhexanamide],444 ± 0.39 K,8.21 ± 0.177 kcal/mol,–,–,–,–

# Now from value to molecule:
Triple point temperature ([1]; Crystal),Molar enthalpy of transition or fusion ([2]; Crystal),Triple point temperature ([1]; Crystal 1),Triple point temperature ([1]; Crystal 2),Molar enthalpy of transition or fusion ([2]; Crystal 1),Molar enthalpy of transition or fusion ([2]; Crystal 2),SMILES
–,–,411.9 ± 2 K,368.43 ± 0.39 K,3.8 ± 0.115 kcal/mol,1.84 ± 0.0765 kcal/mol,CNC(=O)C(C)NC(C)=O (stereo unspecified) [2-acetamido-N-methylpropanamide]
–,–,454.8 ± 0.39 K,395.07 ± 0.41 K,5.94 ± 0.134 kcal/mol,1.34 ± 0.0454 kcal/mol,CNC(=O)[C@H](C)NC(C)=O [(S)-2-acetamido-N-methylpropanamide]
482.02 ± 0.39 K,6.48 ± 0.143 kcal/mol,–,–,–,–,CC[C@H](C)[C@H](NC(C)=O)C(=O)NC (racemic) [N-acetyl-N'-methyl-DL-isoleucinamide]
434.83 ± 0.4 K,5.91 ± 0.134 kcal/mol,–,–,–,–,CCC(NC(C)=O)C(=O)NC (stereo unspecified) [2-acetamido-N-methylbutanamide]

# — the NIST ThermoML archive (doi:10.1016/j.jct.2013.12.016)
